# From patent US8921397B2, “Benzofurane-piperidine compounds” (Hoffmann-La Roche Inc., priority 2011, dated 2014)
# Key:
# human D3 receptor = human D3 receptor (Homo sapiens (Human), UniProt P35462); test: Radioligand binding ([3H]-spiperone) to human D3 receptor, HEK293 EBNA membranes; conditions: HEK293 EBNA cells expressing human D3 receptor
# In short: (§1)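 Membranes from transiently transfected HEK293 EBNA cells (~7.5 μg protein/well) were incubated 1 h at RT with [3H]-spiperone (~0.7 nM for D2, 0.5 nM for D3) and ten compound concentrations (10 μM–0.1 nM) in Tris/NaCl/MgCl2/CaCl2 buffer pH 7.4. Filtration and scintillation counting, nonspecific with 10 μM spiperone; Ki via Cheng-Prusoff.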
# human 5-HT2A receptor = human 5-HT2A receptor (Homo sapiens (Human), UniProt P28223); test: Radioligand binding ([3H]-ketanserin) to human 5-HT2A receptor, HEK293 EBNA membranes; conditions: HEK293 EBNA cells expressing human 5-HT2A receptor
# human 5-HT2A receptor, sequence (P28223 whole entry): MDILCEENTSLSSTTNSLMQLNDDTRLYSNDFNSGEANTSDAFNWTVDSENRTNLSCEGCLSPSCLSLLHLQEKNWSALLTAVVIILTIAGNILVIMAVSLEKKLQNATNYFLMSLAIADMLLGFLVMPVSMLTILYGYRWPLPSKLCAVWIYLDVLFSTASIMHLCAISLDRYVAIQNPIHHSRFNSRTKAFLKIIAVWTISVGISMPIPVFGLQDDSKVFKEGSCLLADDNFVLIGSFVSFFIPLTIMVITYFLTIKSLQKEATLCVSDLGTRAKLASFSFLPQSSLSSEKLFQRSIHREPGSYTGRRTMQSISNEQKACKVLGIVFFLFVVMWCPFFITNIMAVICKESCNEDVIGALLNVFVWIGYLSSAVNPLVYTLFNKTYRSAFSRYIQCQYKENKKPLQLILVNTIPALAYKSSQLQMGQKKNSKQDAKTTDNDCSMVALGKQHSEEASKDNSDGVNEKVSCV
# In short: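 Membranes from HEK293 EBNA cells transiently expressing the human receptor were incubated 1 h at RT with ~0.7 nM (D2) or 0.5 nM (D3) [3H]-spiperone, or 1.1 nM [3H]-ketanserin (5-HT2A), plus ten compound concentrations (10 μM–0.1 nM). Nonspecific binding was set with 10 μM spiperone; Ki was derived from IC50 via Cheng-Prusoff.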
# human D2 receptor = human D2 receptor (Homo sapiens (Human), UniProt P14416); test: Radioligand binding ([3H]-spiperone) to human D2 receptor, HEK293 EBNA membranes; conditions: HEK293 EBNA cells expressing human D2 receptor
# human D2 receptor, sequence (P14416 whole entry): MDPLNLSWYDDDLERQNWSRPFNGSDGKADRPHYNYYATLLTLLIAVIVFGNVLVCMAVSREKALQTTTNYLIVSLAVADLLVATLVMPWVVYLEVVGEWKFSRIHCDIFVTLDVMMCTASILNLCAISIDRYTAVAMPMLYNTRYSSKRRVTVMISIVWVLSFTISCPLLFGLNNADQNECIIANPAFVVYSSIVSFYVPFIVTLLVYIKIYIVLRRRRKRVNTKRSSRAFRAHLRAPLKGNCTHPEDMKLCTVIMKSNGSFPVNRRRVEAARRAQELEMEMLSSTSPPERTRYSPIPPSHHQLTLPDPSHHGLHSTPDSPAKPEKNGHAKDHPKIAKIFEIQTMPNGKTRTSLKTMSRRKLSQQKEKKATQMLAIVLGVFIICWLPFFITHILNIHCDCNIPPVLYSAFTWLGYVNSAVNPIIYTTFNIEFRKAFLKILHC
# In short: as §1
# human D3 receptor, sequence (P35462 whole entry): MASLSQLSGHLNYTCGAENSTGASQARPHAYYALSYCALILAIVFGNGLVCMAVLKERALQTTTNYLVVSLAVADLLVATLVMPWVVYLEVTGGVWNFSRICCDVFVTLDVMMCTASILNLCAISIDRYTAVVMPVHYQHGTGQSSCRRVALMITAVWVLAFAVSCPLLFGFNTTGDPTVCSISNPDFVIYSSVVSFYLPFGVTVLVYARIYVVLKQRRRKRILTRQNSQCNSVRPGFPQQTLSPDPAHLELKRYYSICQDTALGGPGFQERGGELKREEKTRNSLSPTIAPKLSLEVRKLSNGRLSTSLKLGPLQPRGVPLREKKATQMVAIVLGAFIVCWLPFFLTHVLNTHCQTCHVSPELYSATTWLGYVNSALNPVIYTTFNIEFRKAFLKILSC
smiles,measurement,setting,value
"CC[C@H](O)CC(=O)N[C@H]1CC[C@H](CCN2CCC(c3coc4ccccc34)CC2)CC1 [Example 47, (S)-3-Hydroxy-pentanoic acid trans-{4-[2-(4-benzofuran-3-yl-piperidin-1-yl)-ethyl]-cyclohexyl}-amide]",Ki,human D3 receptor,2.25 nM
same,Ki,human 5-HT2A receptor,9.1 nM
same,melting point,,140 °C
same,Ki,human D2 receptor,33.8 nM
"C/C=C/CC(=O)N[C@H]1CC[C@H](CCN2CCC(c3coc4ccccc34)CC2)CC1 [Example 54, (E)-Pent-3-enoic acid trans-{4-[2-(4-benzofuran-3-yl-piperidin-1-yl)-ethyl]-cyclohexyl}-amide]",Ki,human D3 receptor,1.81 nM
same,Ki,human 5-HT2A receptor,12.3 nM
same,melting point,,165 °C
same,Ki,human D2 receptor,58 nM
"CC(C)CCC(=O)N[C@H]1CC[C@H](CCN2CCC(c3coc4ccccc34)CC2)CC1 [Example 45, 4-Methyl-pentanoic acid trans-{4-[2-(4-benzofuran-3-yl-piperidin-1-yl)-ethyl]-cyclohexyl}-amide]",Ki,human D3 receptor,2.9 nM
same,Ki,human 5-HT2A receptor,13.1 nM
same,melting point,,179 °C
same,Ki,human D2 receptor,66 nM
"O=C(CC1CCOCC1)N[C@H]1CC[C@H](CCN2CCC(c3coc4ccccc34)CC2)CC1 [Example 4, trans-N-{4-[2-(4-Benzofuran-3-yl-piperidin-1-yl)-ethyl]-cyclohexyl}-2-(tetrahydro-pyran-4-yl)-acetamide]",Ki,human D3 receptor,3.14 nM
same,Ki,human 5-HT2A receptor,5.37 nM
same,melting point,,175 °C
same,Ki,human D2 receptor,77.6 nM
"COC(CC(=O)N[C@H]1CC[C@H](CCN2CCC(c3coc4ccccc34)CC2)CC1)OC [Example 52, trans-N-{4-[2-(4-Benzofuran-3-yl-piperidin-1-yl)-ethyl]-cyclohexyl}-3,3-dimethoxy-propionamide]",Ki,human D3 receptor,1.46 nM
same,Ki,human 5-HT2A receptor,5.94 nM
same,melting point,,148 °C
same,Ki,human D2 receptor,48.9 nM
"O=C(N[C@H]1CC[C@H](CCN2CCC(c3coc4ccccc34)CC2)CC1)c1ccc(N2CCCCC2)cc1 [Example 51, trans-N-{4-[2-(4-Benzofuran-3-yl-piperidin-1-yl)-ethyl]-cyclohexyl}-4-piperidin-1-yl-benzamide]",Ki,human D3 receptor,4.39 nM
same,Ki,human 5-HT2A receptor,6.85 nM
same,melting point,,221 °C
same,Ki,human D2 receptor,345 nM
"CCC(C)C(=O)N[C@H]1CC[C@H](CCN2CCC(c3coc4ccccc34)CC2)CC1 (mixture of isomers) [Example 31, trans-N-{4-[2-(4-Benzofuran-3-yl-piperidin-1-yl)-ethyl]-cyclohexyl}-(RS)-2-methyl-butyramide]",Ki,human D3 receptor,4.83 nM
same,Ki,human 5-HT2A receptor,6.56 nM
same,melting point,,172 °C
same,Ki,human D2 receptor,46 nM
"COCCC(=O)N[C@H]1CC[C@H](CCN2CCC(c3coc4ccccc34)CC2)CC1 [Example 2, trans-N-{4-[2-(4-Benzofuran-3-yl-piperidin-1-yl)-ethyl]-cyclohexyl}-3-methoxy-propionamide]",Ki,human D3 receptor,1.22 nM
same,Ki,human 5-HT2A receptor,4.63 nM
same,melting point,,136 °C
same,Ki,human D2 receptor,71.2 nM
"O=C(N[C@H]1CC[C@H](CCN2CCC(c3coc4ccccc34)CC2)CC1)c1ccc(-c2ccccc2)cc1 [Example 63, Biphenyl-4-carboxylic acid trans-{4-[2-(4-benzofuran-3-yl-piperidin-1-yl)-ethyl]-cyclohexyl}-amide]",Ki,human D3 receptor,3.37 nM
same,Ki,human 5-HT2A receptor,5.21 nM
same,melting point,,235 °C
same,Ki,human D2 receptor,22.1 nM
"O=C(N[C@H]1CC[C@H](CCN2CCC(c3coc4ccccc34)CC2)CC1)C12CC3CC(CC(C3)C1)C2 [Example 78, Adamantane-1-carboxylic acid trans-{4-[2-(4-benzofuran-3-yl-piperidin-1-yl)-ethyl]-cyclohexyl}-amide]",Ki,human D3 receptor,12.7 nM
same,Ki,human 5-HT2A receptor,17.4 nM
same,melting point,,200 °C
same,Ki,human D2 receptor,129 nM
"O=C(CCC(F)(F)F)N[C@H]1CC[C@H](CCN2CCC(c3coc4ccccc34)CC2)CC1 [Example 44, trans-N-{4-[2-(4-Benzofuran-3-yl-piperidin-1-yl)-ethyl]-cyclohexyl}-4,4,4-trifluoro-butyramide]",Ki,human D3 receptor,2.94 nM
same,Ki,human 5-HT2A receptor,15 nM
same,melting point,,192 °C
same,Ki,human D2 receptor,61.2 nM
"CC[C@@H](O)CC(=O)N[C@H]1CC[C@H](CCN2CCC(c3coc4ccccc34)CC2)CC1 [Example 46, (R)-3-Hydroxy-pentanoic acid trans-{4-[2-(4-benzofuran-3-yl-piperidin-1-yl)-ethyl]-cyclohexyl}-amide]",Ki,human D3 receptor,2.49 nM
same,Ki,human 5-HT2A receptor,8.7 nM
same,melting point,,142 °C
same,Ki,human D2 receptor,55.4 nM
"CC(C)(C)C1CCC(C(=O)N[C@H]2CC[C@H](CCN3CCC(c4coc5ccccc45)CC3)CC2)CC1 (stereo partly drawn) [Example 77, 4-tert-Butyl-cyclohexanecarboxylic acid trans-{4-[2-(4-benzofuran-3-yl-piperidin-1-yl)-ethyl]-cyclohexyl}-amide]",Ki,human D3 receptor,9.48 nM
same,Ki,human 5-HT2A receptor,6.03 nM
same,melting point,,199 °C
same,Ki,human D2 receptor,345 nM
"O=C(CC1CCC1)N[C@H]1CC[C@H](CCN2CCC(c3coc4ccccc34)CC2)CC1 [Example 48, trans-N-{4-[2-(4-Benzofuran-3-yl-piperidin-1-yl)-ethyl]-cyclohexyl}-2-cyclobutyl-acetamide]",Ki,human D3 receptor,2.05 nM
same,Ki,human 5-HT2A receptor,4.94 nM
same,melting point,,173 °C
same,Ki,human D2 receptor,58.2 nM
"CCCC(=O)N[C@H]1CC[C@H](CCN2CCC(c3coc4ccccc34)CC2)CC1 [Example 33, trans-N-{4-[2-(4-Benzofuran-3-yl-piperidin-1-yl)-ethyl]-cyclohexyl}-butyramide]",Ki,human D3 receptor,1.71 nM
same,Ki,human 5-HT2A receptor,5.53 nM
same,melting point,,155 °C
same,Ki,human D2 receptor,45.3 nM
"CC(C)=CC(=O)N[C@H]1CC[C@H](CCN2CCC(c3coc4ccccc34)CC2)CC1 [Example 53, 3-Methyl-but-2-enoic acid trans-{4-[2-(4-benzofuran-3-yl-piperidin-1-yl)-ethyl]-cyclohexyl}-amide]",Ki,human D3 receptor,2.83 nM
same,Ki,human 5-HT2A receptor,9.68 nM
same,melting point,,147 °C
same,Ki,human D2 receptor,18 nM
"O=C(N[C@H]1CC[C@H](CCN2CCC(c3coc4ccccc34)CC2)CC1)C1CCCOC1 (stereo partly drawn) [Example 26, Tetrahydro-pyran-3-carboxylic acid trans-{4-[2-(4-benzofuran-3-yl-piperidin-1-yl)-ethyl]-cyclohexyl}-amide]",Ki,human D3 receptor,5.88 nM
same,Ki,human 5-HT2A receptor,4.7 nM
same,melting point,,188 °C
same,Ki,human D2 receptor,37.1 nM
"N#Cc1ccc(C(=O)N[C@H]2CC[C@H](CCN3CCC(c4coc5ccccc45)CC3)CC2)cc1 [Example 70, trans-N-{4-[2-(4-Benzofuran-3-yl-piperidin-1-yl)-ethyl]-cyclohexyl}-4-cyano-benzamide]",Ki,human D3 receptor,2.68 nM
same,Ki,human 5-HT2A receptor,5.89 nM
same,melting point,,195 °C
same,Ki,human D2 receptor,15.2 nM
"CC(C)(O)CC(=O)N[C@H]1CC[C@H](CCN2CCC(c3coc4ccccc34)CC2)CC1 [Example 34, trans-N-{4-[2-(4-Benzofuran-3-yl-piperidin-1-yl)-ethyl]-cyclohexyl}-3-hydroxy-3-methyl-butyramide]",Ki,human D3 receptor,2.25 nM
same,Ki,human 5-HT2A receptor,5.1 nM
same,melting point,,150 °C
same,Ki,human D2 receptor,41.3 nM
"O=C(N[C@H]1CC[C@H](CCN2CCC(c3coc4ccccc34)CC2)CC1)C1CC1(F)F (stereo partly drawn) [Example 30, 2,2-Difluoro-cyclopropanecarboxylic acid trans-{4-[2-(4-benzofuran-3-yl-piperidin-1-yl)-ethyl]-cyclohexyl}-amide]",Ki,human D3 receptor,3.53 nM
same,Ki,human 5-HT2A receptor,8.59 nM
same,melting point,,189 °C
same,Ki,human D2 receptor,28.1 nM
"O=C(N[C@H]1CC[C@H](CCN2CCC(c3coc4ccccc34)CC2)CC1)c1ccc(-n2cccn2)cc1 [Example 59, trans-N-[4-{2-(4-Benzofuran-3-yl-piperidin-1-yl)-ethyl]-cyclohexyl}-4-pyrazol-1-yl-benzamide]",Ki,human D3 receptor,5.73 nM
same,Ki,human 5-HT2A receptor,22.2 nM
same,melting point,,205 °C
same,Ki,human D2 receptor,46.9 nM
"O=C(N[C@H]1CC[C@H](CCN2CCC(c3coc4ccccc34)CC2)CC1)c1ccc(F)cc1 [Example 24, trans-N-{4-[2-(4-Benzofuran-3-yl-piperidin-1-yl)-ethyl]-cyclohexyl}-4-fluoro-benzamide]",Ki,human D3 receptor,3.05 nM
same,Ki,human 5-HT2A receptor,5.66 nM
same,melting point,,193 °C
same,Ki,human D2 receptor,68.9 nM
"CN(C)S(=O)(=O)N[C@H]1CC[C@H](CCN2CCC(c3coc4ccccc34)CC2)CC1 [Example 43, N′-(trans-4-{2-[4-(benzofuran-3-yl)-piperidin-1-yl]-ethyl}-cyclohexyl)-N,N-dimethylsulfamide]",Ki,human D3 receptor,3.02 nM
same,Ki,human 5-HT2A receptor,4.41 nM
same,melting point,,229 °C
same,Ki,human D2 receptor,47 nM
"O=C(N[C@H]1CC[C@H](CCN2CCC(c3coc4ccccc34)CC2)CC1)c1ccc(C2CCCCC2)cc1 [Example 82, trans-N-{4-[2-(4-Benzofuran-3-yl-piperidin-1-yl)-ethyl]-cyclohexyl}-4-cyclohexyl-benzamide]",Ki,human D3 receptor,41.3 nM
same,Ki,human 5-HT2A receptor,5.81 nM
same,melting point,,230 °C
same,D2 Ki,human D2 receptor,inact.
"CO[C@H]1CC[C@H](CC(=O)N[C@H]2CC[C@H](CCN3CCC(c4coc5ccccc45)CC3)CC2)CC1 [Example 72, trans-N-{4-[2-(4-Benzofuran-3-yl-piperidin-1-yl)-ethyl]-cyclohexyl}-2-trans-(4-methoxy-cyclohexyl)-acetamide]",Ki,human D3 receptor,3.09 nM
same,Ki,human 5-HT2A receptor,8.14 nM
same,melting point,,179 °C
same,Ki,human D2 receptor,67.4 nM
"O=CN[C@H]1CC[C@H](CCN2CCC(c3coc4ccccc34)CC2)CC1 [Example 56, trans-N-{4-[2-(4-Benzofuran-3-yl-piperidin-1-yl)-ethyl]-cyclohexyl}-formamide]",Ki,human D3 receptor,2.68 nM
same,Ki,human 5-HT2A receptor,13.4 nM
same,melting point,,155 °C
same,Ki,human D2 receptor,38.8 nM
